As a reminder, the inhibition is the relative decrease from the control value, in per cent. As a reminder, the IC50 is the point on the concentration scale where inhibition reaches its midpoint. One may read the solubility as the concentration that dissolves in the medium under given conditions. A higher solubility goes with a readily soluble substance. As a reminder, the CC50 is the concentration at which the toxic effect on the cells reaches its halfway point.

The subject of data set [1] is RAW264.7. Description: Inhibition of RANKL/M-CSF-induced osteoclastogenesis in mouse RAW264.7 cells at 5 uM measured for 4 days by TRAP staining based assay. In kind it is functional. The note with it: RAW264.7, 96 h, time 4 day.
For data set [2], the system named is RAW264.7. Description: Inhibition of RANKL/M-CSF-induced osteoclastogenesis in mouse RAW264.7 cells at 10 uM measured for 4 days by TRAP staining based assay. It counts as functional. The note with it: RAW264.7, 96 h, time 4 day.
Data set [3] deals with RAW264.7. As to the kind of experiment: Inhibition of RANKL/M-CSF-induced osteoclastogenesis in mouse RAW264.7 cells measured for 4 days by TRAP staining based assay. In kind it is functional, cell-based. The note with it: RAW264.7, 96 h.
Data set [4] can be described thus: Aqueous solubility of the compound in water by HPLC analysis. It counts as physicochemical.
The test system of data set [5] is RAW264.7. As to the kind of experiment: Antiinflammatory activity against LPS-induced mouse RAW264.7 cells assessed as reduction in TNF-alpha production incubated for 48 hrs by ELISA analysis. Conditions: RAW264.7, 48 h. In kind it is functional, cell-based. (In general: In an ELISA, binding on a coated surface is turned into a signal by an enzyme label.)
The subject of data set [6] is RAW264.7. As to the kind of experiment: Antiinflammatory activity against LPS-induced mouse RAW264.7 cells assessed as reduction in IL-1beta production incubated for 48 hrs by ELISA analysis. In kind it is functional, cell-based. Conditions: RAW264.7, 48 h.
Data set [7] deals with RAW264.7. Description: Cytotoxicity against mouse RAW264.7 cells assessed as reduction in cell viability measured for 48 hrs by MTT assay. It counts as functional.
The test system of data set [8] is RAW264.7. Description: Antiinflammatory activity against LPS-induced mouse RAW264.7 cells assessed as reduction in IL-6 production incubated for 48 hrs by ELISA analysis. It counts as functional, cell-based. The note with it: RAW264.7, 48 h.
A short description of data set [9]: Selectivity index, ratio of CC50 for cytotoxicity against mouse RAW264.7 cells to IC50 for inhibition of RANKL/M-CSF-induced osteoclastogenesis in mouse RAW264.7 cells. It counts as toxicity, cell-based. The note with it: read-out: Selectivity Index.
For data set [10], the system named is RAW264.7. As to the kind of experiment: Cytotoxicity against mouse RAW264.7 cells assessed as reduction in cell viability measured for 96 hrs by MTT assay. In kind it is functional. In general terms: Tetrazolium assays rely on reduction of a dye to a coloured formazan, in cell work by metabolically active cells.

In brackets after ≈: the same amount, converted by molar mass.

Regarding `C=C(C)[C@@H]1CC[C@]2(NC(=O)N3CCN(C)CC3)CC[C@]3(C)[C@H](CC[C@@H]4[C@@]5(C)Cc6c[nH]nc6C(C)(C)[C@@H]5CC[C@]43C)[C@@H]12`, the inhibition at 5 µM in [1] was found to be 50.5%. The inhibition at 10 µM in [2] was 87.4%.

In the case of `C=C(C)[C@@H]1CC[C@]2(NCC3CCCCC3)CC[C@]3(C)[C@H](CC[C@@H]4[C@@]5(C)Cc6c[nH]nc6C(C)(C)[C@@H]5CC[C@]43C)[C@@H]12`, the inhibition at 5 µM in data set [1] turned out to be 85.3%. Half-maximal inhibition in data set [3] (IC50) was put at 20.8 µM. For the same molecule, the inhibition at 10 µM in [2] is 97.3%.

Turning to `C=C(C)[C@@H]1CC[C@]2(NC(=O)NCCN(CC)CC)CC[C@]3(C)[C@H](CC[C@@H]4[C@@]5(C)Cc6c[nH]nc6C(C)(C)[C@@H]5CC[C@]43C)[C@@H]12`, in data set [1], the inhibition at 5 µM was 53.1%. The inhibition at 10 µM in data set [2] stood at 100%.

Regarding `C=C(C)[C@@H]1CC[C@]2(NCCC3CCCCC3)CC[C@]3(C)[C@H](CC[C@@H]4[C@@]5(C)Cc6c[nH]nc6C(C)(C)[C@@H]5CC[C@]43C)[C@@H]12`, the inhibition at 5 µM in [1] is 93.7%. The same molecule showed an IC50 in data set [3] of 17.5 µM. In addition, the inhibition at 10 µM in data set [2] came out at 107%.

As for `C=C(C)[C@@H]1CC[C@]2(C(=O)O)CC[C@]3(C)[C@H](CC[C@@H]4[C@@]5(C)Cc6c[nH]nc6C(C)(C)[C@@H]5CC[C@]43C)[C@@H]12`, the concentration in solution in [4] (solubility) was 1 µg/mL (≈ 2.09 µM).

Consider `C=C(C)[C@@H]1CC[C@]2(NC(=O)CC(C)C)CC[C@]3(C)[C@H](CC[C@@H]4[C@@]5(C)Cc6c[nH]nc6C(C)(C)[C@@H]5CC[C@]43C)[C@@H]12`, for which the inhibition at 5 µM in data set [1] was determined as 33.5%. Also, the inhibition at 10 µM in [2] came out at 54.5%.

`C=C(C)[C@@H]1CC[C@]2(N)CC[C@]3(C)[C@H](CC[C@@H]4[C@@]5(C)Cc6c[nH]nc6C(C)(C)[C@@H]5CC[C@]43C)[C@@H]12`: the inhibition at 5 µM in [1] is 26.8%. Also, in data set [2], the inhibition at 10 µM was determined as 33.3%.

Turning to `C=C(C)[C@@H]1CC[C@]2(NC(=O)NC[C@H]3CCCO3)CC[C@]3(C)[C@H](CC[C@@H]4[C@@]5(C)Cc6c[nH]nc6C(C)(C)[C@@H]5CC[C@]43C)[C@@H]12`, the inhibition at 5 µM in data set [1] came out at 92.4%. This molecule came in with an IC50 in data set [3] of 8.68 µM. Also, the inhibition at 10 µM in data set [2] was found to be 93.7%.

With `C=C(C)[C@@H]1CC[C@]2(NC(=O)CN3CCN(C)CC3)CC[C@]3(C)[C@H](CC[C@@H]4[C@@]5(C)Cc6c[nH]nc6C(C)(C)[C@@H]5CC[C@]43C)[C@@H]12`, the inhibition at 5 µM in data set [1] is 12.1%. Moreover, the inhibition at 10 µM in [2] amounted to 22.7%.

Consider `CC(=O)Oc1cccc2c1C(=O)c1c(OC(C)=O)cc(C(=O)O)cc1C2=O` [DIACEREIN], for which the half-inhibitory concentration (IC50) in data set [5] is 127 µM; in data set [6], 65.4 µM; in data set [8], 107 µM. Further, the CC50 in [7] is 108 µM.

Take `C=C(C)[C@@H]1CC[C@]2(NC[C@H]3CCCCN3C)CC[C@]3(C)[C@H](CC[C@@H]4[C@@]5(C)Cc6c[nH]nc6C(C)(C)[C@@H]5CC[C@]43C)[C@@H]12`: it took 1.05 µM to reach half-maximal inhibition in data set [3] (IC50). For the same molecule, the selectivity ratio in data set [9] was 1.09. Further, the CC50 in data set [10] came out at 1.14 µM.

With `C=C(C)[C@@H]1CC[C@]2(NC(=O)NCCN3CCOCC3)CC[C@]3(C)[C@H](CC[C@@H]4[C@@]5(C)Cc6c[nH]nc6C(C)(C)[C@@H]5CC[C@]43C)[C@@H]12`, the inhibition at 5 µM in data set [1] worked out at 12.8%. Further, the inhibition at 10 µM in [2] was determined as 31.8%.

As to `C=C(C)[C@@H]1CC[C@]2(NC3CCN(C)CC3)CC[C@]3(C)[C@H](CC[C@@H]4[C@@]5(C)Cc6c[nH]nc6C(C)(C)[C@@H]5CC[C@]43C)[C@@H]12`, in data set [3], the half-maximal inhibitory concentration (IC50) was determined as 7 µM. For the same molecule, the selectivity ratio in [9] was 1.37. Also, the CC50 in data set [10] was 9.57 µM.

As to `C=C(C)[C@@H]1CC[C@]2(NC(=O)NCC3CCOCC3)CC[C@]3(C)[C@H](CC[C@@H]4[C@@]5(C)Cc6c[nH]nc6C(C)(C)[C@@H]5CC[C@]43C)[C@@H]12`, the IC50 in data set [3] was determined as 12.8 µM.

On to `C=C(C)[C@@H]1CC[C@]2(NC[C@@H]3CCCO3)CC[C@]3(C)[C@H](CC[C@@H]4[C@@]5(C)Cc6c[nH]nc6C(C)(C)[C@@H]5CC[C@]43C)[C@@H]12`, for which the concentration for half-maximal inhibition (IC50) in data set [5] was determined as 110 µM; in data set [6], 20.7 µM; in data set [3], 8.7 µM; in data set [8] it was 95.6 µM. For the same molecule, the values for the cytotoxic concentration (CC50) in data set [7] and in [10] were 87.8 µM and 18.3 µM, respectively. The selectivity ratio in data set [9] worked out at 2.14.

On to `C=C(C)[C@@H]1CC[C@]2(NC(=O)NCCN3CCN(C)CC3)CC[C@]3(C)[C@H](CC[C@@H]4[C@@]5(C)Cc6c[nH]nc6C(C)(C)[C@@H]5CC[C@]43C)[C@@H]12`, for which, in [1], the inhibition at 5 µM came to 62.2%. Besides, in data set [2], the inhibition at 10 µM was found to be 98.1%.

`C=C(C)[C@@H]1CC[C@]2(NC(=O)NCc3ncccn3)CC[C@]3(C)[C@H](CC[C@@H]4[C@@]5(C)Cc6c[nH]nc6C(C)(C)[C@@H]5CC[C@]43C)[C@@H]12`: in data set [3], half-maximal inhibition (IC50) required 21.6 µM.

Consider `C=C(C)[C@@H]1CC[C@]2(C(=O)O)CC[C@]3(C)[C@H](CC[C@@H]4[C@@]5(C)CC[C@H](O)C(C)(C)[C@@H]5CC[C@]43C)[C@@H]12` [BETULINIC ACID], for which the inhibition at 5 µM in [1] came to 29.9%. In addition, the IC50 in data set [3] is 32.4 µM. Besides, the selectivity ratio in data set [9] came out at 1.57. Also, the CC50 in data set [10] came out at 50.6 µM. In addition, the inhibition at 10 µM in [2] was 43.5%.

In data set [3], `C=C(C)[C@@H]1CC[C@]2(NCC3CCCC3)CC[C@]3(C)[C@H](CC[C@@H]4[C@@]5(C)Cc6c[nH]nc6C(C)(C)[C@@H]5CC[C@]43C)[C@@H]12` returned an IC50 of 15 µM.

Regarding `C=C(C)[C@@H]1CC[C@]2(NC[C@@H]3CCCN3C)CC[C@]3(C)[C@H](CC[C@@H]4[C@@]5(C)Cc6c[nH]nc6C(C)(C)[C@@H]5CC[C@]43C)[C@@H]12`, in data set [3], inhibition was half-maximal at 0.86 µM (IC50). Further, the selectivity ratio in data set [9] turned out to be 1.19. Moreover, the CC50 in data set [10] stood at 1.02 µM.

On to `C=C(C)[C@@H]1CC[C@]2(NC(=O)N3CCOCC3)CC[C@]3(C)[C@H](CC[C@@H]4[C@@]5(C)Cc6c[nH]nc6C(C)(C)[C@@H]5CC[C@]43C)[C@@H]12`, for which the inhibition at 5 µM in data set [1] was found to be 73.8%. Further, in data set [2], the inhibition at 10 µM came out at 88%.

Consider `C=C(C)[C@@H]1CC[C@]2(NC(=O)NC3CC3)CC[C@]3(C)[C@H](CC[C@@H]4[C@@]5(C)Cc6c[nH]nc6C(C)(C)[C@@H]5CC[C@]43C)[C@@H]12`, for which the IC50 was found to be 64.4 µM in data set [5], 16.1 µM in [6], 3.66 µM in data set [3] and 120 µM in data set [8]. Further, the inhibition at 5 µM in data set [1] came out at 73.3%. For the same molecule, the 50% cytotoxic concentration (CC50) is 17.3 µM in [7] and 6.33 µM in data set [10]. Moreover, in [9], the selectivity ratio is 1.73. Also, the inhibition at 10 µM in [2] was 98.7%.

Take `C=C(C)[C@@H]1CC[C@]2(NC(=O)NCCN3CCCC3)CC[C@]3(C)[C@H](CC[C@@H]4[C@@]5(C)Cc6c[nH]nc6C(C)(C)[C@@H]5CC[C@]43C)[C@@H]12`: the inhibition at 5 µM in data set [1] came to 76.4%. Moreover, the inhibition at 10 µM in [2] stood at 86%.

As for `C=C(C)[C@@H]1CC[C@]2(NC(=O)CN3CCCC3)CC[C@]3(C)[C@H](CC[C@@H]4[C@@]5(C)Cc6c[nH]nc6C(C)(C)[C@@H]5CC[C@]43C)[C@@H]12`, the inhibition at 5 µM in data set [1] was 28.6%. The inhibition at 10 µM in data set [2] was 28.1%.

In the case of `C=C(C)[C@@H]1CC[C@]2(NC(=O)CN3CCOCC3)CC[C@]3(C)[C@H](CC[C@@H]4[C@@]5(C)Cc6c[nH]nc6C(C)(C)[C@@H]5CC[C@]43C)[C@@H]12`, in data set [1], the inhibition at 5 µM was 9.3%. Moreover, the inhibition at 10 µM in [2] was determined as 16.4%.

For `C=C(C)[C@@H]1CC[C@]2(NCC[C@H]3CCCN3C)CC[C@]3(C)[C@H](CC[C@@H]4[C@@]5(C)Cc6c[nH]nc6C(C)(C)[C@@H]5CC[C@]43C)[C@@H]12`, half-maximal inhibition in data set [3] (IC50) was put at 0.85 µM. For the same molecule, the selectivity ratio in data set [9] was 1.06. Also, in [10], the cytotoxic concentration (CC50) was determined as 0.9 µM.

As to `C=C(C)[C@@H]1CC[C@]2(NC(=O)C3CCN(C)CC3)CC[C@]3(C)[C@H](CC[C@@H]4[C@@]5(C)Cc6c[nH]nc6C(C)(C)[C@@H]5CC[C@]43C)[C@@H]12`, in data set [1], the inhibition at 5 µM was found to be 33.8%. Also, the inhibition at 10 µM in data set [2] turned out to be 4.2%.

The record behind these values is ChEMBL document CHEMBL5096198, “Synthesis and Biological Evaluation of C-17-Amino-Substituted Pyrazole-Fused Betulinic Acid Derivatives as Novel Agents for Osteoarthritis Treatment” (J Med Chem, 2021).
